Measurements reported in patent publication US20230151025A1, “SUBSTITUTED THIAZOLOPYRIDINES, SALTS THEREOF AND THEIR USE AS HERBICIDALLY ACTIVE SUBSTANCES” (Bayer Aktiengesellschaft, priority 2020, published 2023).

Tests used:
Assay type in all cases: in vivo
[1] = tested on: Polygonum convolvulus (POLCO); experiment: Herbicidal post-emergence action (D), 320 g/ha; conditions: ca. 3 weeks
Outline: (§1)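 Post-emergence greenhouse test. Sandy loam; spray at single-leaf stage (2–3 wk after sowing); WP or EC in water + 0.5% additive, 600 l/ha. Visual rating ~3 wk post-spray, % effect vs untreated (0 = control, 100 = dead).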

Setaria viridis (SETVI) [2] = experiment: Herbicidal post-emergence action (D), 320 g/ha; conditions: ca. 3 weeks
Outline: as §1

Veronica persica (VERPE) [3] = experiment: Herbicidal post-emergence action (D), 320 g/ha; conditions: ca. 3 weeks
Outline: as §1

[4] = tested on: Abutilon theophrasti (ABUTH); experiment: Herbicidal post-emergence action (D), 320 g/ha; conditions: ca. 3 weeks
Outline: as §1

[5] = tested on: Alopecurus myosuroides (ALOMY); experiment: Herbicidal post-emergence action (D), 320 g/ha; conditions: ca. 3 weeks
Outline: as §1

[6] = tested on: Echinochloa crus-galli (ECHCG); experiment: Herbicidal post-emergence action (D), 320 g/ha; conditions: ca. 3 weeks
Outline: as §1

[7] = tested on: Amaranthus retroflexus (AMARE); experiment: Herbicidal pre-emergence action (C), 320 g/ha; conditions: ca. 3 weeks
Outline: (§2)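 Visual percent damage relative to untreated controls was scored about 3 weeks after treatment, where 100% means plants died off and 0% means like controls. Compounds, as WP or EC with 0.5% additive, were applied in 600 l water/ha to the soil covering sown seeds.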

Setaria viridis (SETVI) [8] = experiment: Herbicidal pre-emergence action (C), 320 g/ha; conditions: ca. 3 weeks
Outline: as §2

Veronica persica (VERPE) [9] = experiment: Herbicidal pre-emergence action (C), 320 g/ha; conditions: ca. 3 weeks
Outline: as §2

[10] = tested on: Abutilon theophrasti (ABUTH); experiment: Herbicidal pre-emergence action (C), 320 g/ha; conditions: ca. 3 weeks
Outline: as §2

[11] = tested on: Alopecurus myosuroides (ALOMY); experiment: Herbicidal pre-emergence action (C), 320 g/ha; conditions: ca. 3 weeks
Outline: as §2

[12] = tested on: Echinochloa crus-galli (ECHCG); experiment: Herbicidal pre-emergence action (C), 320 g/ha; conditions: ca. 3 weeks
Outline: as §2

Poa annua (POAAN) [13] = experiment: Herbicidal post-emergence action (B), 1280 g/ha; conditions: rated visually after about 3 weeks vs untreated controls
Outline: (§3)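 Percent activity is a visual score taken about 3 weeks after treatment, relative to untreated plants, where 100% means the plants died and 0% means no difference from controls. Plants were sprayed on green parts at the one-leaf stage with an aqueous suspension or emulsion containing 0.5% additive at 600 L/ha.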

[14] = tested on: Amaranthus retroflexus (AMARE); experiment: Herbicidal post-emergence action (B), 1280 g/ha; conditions: rated visually after about 3 weeks vs untreated controls
Outline: as §3

Setaria viridis (SETVI) [15] = experiment: Herbicidal post-emergence action (B), 1280 g/ha; conditions: rated visually after about 3 weeks vs untreated controls
Outline: as §3

Veronica persica (VERPE) [16] = experiment: Herbicidal post-emergence action (B), 1280 g/ha
Outline: as §3

[17] = tested on: Kochia scoparia (KCHSC; Bassia scoparia); experiment: Herbicidal post-emergence action (B), 1280 g/ha
Outline: as §3

Stellaria media (STEME) [18] = experiment: Herbicidal post-emergence action (B), 1280 g/ha
Outline: as §3

[19] = tested on: Echinochloa crus-galli (ECHCG); experiment: Herbicidal post-emergence action (B), 1280 g/ha; conditions: rated visually after about 3 weeks vs untreated controls
Outline: as §3

Poa annua (POAAN) [20] = experiment: Herbicidal pre-emergence action (A), 1280 g/ha; conditions: visual grading after ca. 3 weeks vs untreated controls, 100% = plants have died off, 0% = as control plants
Outline: (§4)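 Pre-emergence soil-surface spray, 600 l/ha water, 0.5% additive, WP or EC formulation. Sandy loam, double sowing per pot, greenhouse under optimum growth. Visual % damage at ~3 wk vs untreated; 100% = plants died off.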

[21] = tested on: Amaranthus retroflexus (AMARE); experiment: Herbicidal pre-emergence action (A), 1280 g/ha; conditions: visual grading after ca. 3 weeks vs untreated controls
Outline: as §4

Setaria viridis (SETVI) [22] = experiment: Herbicidal pre-emergence action (A), 1280 g/ha; conditions: visual grading after ca. 3 weeks vs untreated controls
Outline: as §4

Lolium rigidum (LOLRI) [23] = experiment: Herbicidal pre-emergence action (A), 1280 g/ha; conditions: visual grading after ca. 3 weeks vs untreated controls, 100% = plants have died off, 0% = as control plants
Outline: as §4

Veronica persica (VERPE) [24] = experiment: Herbicidal pre-emergence action (A), 1280 g/ha; conditions: visual grading after ca. 3 weeks vs untreated controls
Outline: as §4

[25] = tested on: Kochia scoparia (KCHSC; Bassia scoparia); experiment: Herbicidal pre-emergence action (A), 1280 g/ha; conditions: visual grading after ca. 3 weeks vs untreated controls
Outline: as §4

[26] = tested on: Matricaria inodora (MATIN); experiment: Herbicidal pre-emergence action (A), 1280 g/ha; conditions: visual grading after ca. 3 weeks vs untreated controls
Outline: as §4

[27] = tested on: Alopecurus myosuroides (ALOMY); experiment: Herbicidal pre-emergence action (A), 1280 g/ha; conditions: visual grading after ca. 3 weeks vs untreated controls, 100% = plants have died off, 0% = as control plants
Outline: as §4

Stellaria media (STEME) [28] = experiment: Herbicidal pre-emergence action (A), 1280 g/ha; conditions: visual grading after ca. 3 weeks vs untreated controls
Outline: as §4

[29] = tested on: Echinochloa crus-galli (ECHCG); experiment: Herbicidal pre-emergence action (A), 1280 g/ha; conditions: visual grading after ca. 3 weeks vs untreated controls, 100% = plants have died off, 0% = as control plants
Outline: as §4

[30] = tested on: Amaranthus retroflexus (AMARE); experiment: Herbicidal post-emergence action (D), 320 g/ha; conditions: ca. 3 weeks
Outline: as §1

Viola tricolor (VIOTR) [31] = experiment: Herbicidal post-emergence action (D), 320 g/ha; conditions: ca. 3 weeks
Outline: as §1

[32] = tested on: Polygonum convolvulus (POLCO); experiment: Herbicidal pre-emergence action (C), 320 g/ha; conditions: ca. 3 weeks
Outline: as §2

Lolium rigidum (LOLRI) [33] = experiment: Herbicidal pre-emergence action (C), 320 g/ha; conditions: ca. 3 weeks
Outline: as §2

[34] = tested on: Matricaria inodora (MATIN); experiment: Herbicidal pre-emergence action (C), 320 g/ha; conditions: ca. 3 weeks
Outline: as §2

[35] = tested on: Digitaria sanguinalis (DIGSA); experiment: Herbicidal post-emergence action (D), 320 g/ha; conditions: ca. 3 weeks
Text: (§5) Seeds of mono- and dicotyledonous weed plants and crop plants were sown, in plastic or organic planting pots, in sandy loam, covered with soil and grown in a greenhouse under controlled growth conditions. 2 to 3 weeks after sowing, the test plants were sprayed in the single-leaf stage. The compounds according to the invention, formulated in form of wettable powders (WP) or as emulsifiable concentrates (EC), were sprayed onto the green plant parts as aqueous suspension or emulsion, with the addition of 0.5% of an additive, at an application rate of 600 l of water/ha (converted). The test plants were placed in the greenhouse for ca. 3 weeks under optimum growth conditions, and then the effect of the preparations was assessed visually in comparison with untreated controls (herbicidal effect in percent (%): 100% effect=plants have died off, 0% effect=as control plants).
(§6) Tables D1 to D13 below show the effects of selected compounds of the general formula (I) according to table 1 on various harmful plants and an application rate corresponding to 320 g/ha obtained by the experimental procedure mentioned above.

[36] = tested on: Digitaria sanguinalis (DIGSA); experiment: Herbicidal pre-emergence action (C), 320 g/ha; conditions: ca. 3 weeks
Text: (§7) Seeds of mono- and dicotyledonous weed plants and crop plants were sown, in plastic or organic planting pots, in sandy loam and covered with soil. The compounds according to the invention, formulated in the form of wettable powders (WP) or as emulsifiable concentrates (EC), were applied to the surface of the covering soil as aqueous suspension or emulsion, with the addition of 0.5% of an additive, at an application rate of 600 l of water/ha (converted).
(§8) Following treatment, the pots were placed in a greenhouse and kept under optimum growth conditions for the test plants. The visual grading of the damage to the test plants was carried out after ca. 3 weeks in comparison to untreated controls (herbicidal effect in percent (%): 100% effect=plants have died off, 0% effect=as control plants).
(§9) Tables C1 to C13 below show the effects of selected compounds of the general formula (I) according to table 1 on various harmful plants and an application rate corresponding to 320 g/ha obtained by the experimental procedure mentioned above.

Avena fatua [37] = experiment: Herbicidal pre-emergence action (C), 320 g/ha; conditions: ca. 3 weeks
Text: as §7, §8, §9

Lolium rigidum (LOLRI) [38] = experiment: Herbicidal post-emergence action (D), 320 g/ha; conditions: ca. 3 weeks
Outline: as §1

Viola tricolor (VIOTR) [39] = experiment: Herbicidal pre-emergence action (C), 320 g/ha; conditions: ca. 3 weeks
Outline: as §2

Avena fatua [40] = experiment: Herbicidal post-emergence action (D), 320 g/ha; conditions: ca. 3 weeks
Text: as §5, §6

[41] = tested on: Abutilon theophrasti (ABUTH); experiment: Herbicidal post-emergence action (B), 1280 g/ha; conditions: rated visually after about 3 weeks vs untreated controls
Outline: as §3

[42] = tested on: Alopecurus myosuroides (ALOMY); experiment: Herbicidal post-emergence action (B), 1280 g/ha; conditions: rated visually after about 3 weeks vs untreated controls
Outline: as §3

Row | SMILES | herbicidal effect POLCO [1] [%] | herbicidal effect SETVI (Setaria viridis (SETVI) [2]) [%] | herbicidal effect VERPE (Veronica persica (VERPE) [3]) [%] | herbicidal effect ABUTH [4] [%] | herbicidal effect ALOMY [5] [%] | herbicidal effect ECHCG [6] [%] | herbicidal effect AMARE [7] [%] | herbicidal effect SETVI (Setaria viridis (SETVI) [8]) [%] | herbicidal effect VERPE (Veronica persica (VERPE) [9]) [%] | herbicidal effect ABUTH [10] [%] | herbicidal effect ALOMY [11] [%] | herbicidal effect ECHCG [12] [%] | herbicidal activity POAAN (Poa annua (POAAN) [13]) [%] | herbicidal activity AMARE [14] [%] | herbicidal effect VERPE (Veronica persica (VERPE) [16]) [%] | herbicidal effect KCHSC [17] [%] | herbicidal effect STEME (Stellaria media (STEME) [18]) [%] | herbicidal effect VIOTR (Viola tricolor (VIOTR) [31]) [%] | herbicidal effect LOLRI (Lolium rigidum (LOLRI) [33]) [%] | herbicidal effect MATIN [34] [%] | further results
1 | Clc1cc2scnc2nc1-c1sccc1Cl [Example I-189] | 80 | 90 | 80 | 80 | 90 | 90 | 80 | 100 | 80 | 80 | 100 | 100 | 90 | 90 | 90 | 90 | 90 | – | – | – | herbicidal activity SETVI (Setaria viridis (SETVI) [15]): 90%; herbicidal activity ECHCG [19]: 100%; POAAN, herbicidal effect in percent (%) (Poa annua (POAAN) [20]): 100%; herbicidal effect AMARE [21]: 90%; herbicidal effect SETVI (Setaria viridis (SETVI) [22]): 100%; LOLRI, herbicidal effect in percent (%) (Lolium rigidum (LOLRI) [23]): 90%; herbicidal effect VERPE (Veronica persica (VERPE) [24]): 90%; herbicidal effect KCHSC [25]: 90%; herbicidal effect MATIN [26]: 90%; ALOMY, herbicidal effect in percent (%) [27]: 90%; herbicidal effect STEME (Stellaria media (STEME) [28]): 90%; ECHCG, herbicidal effect in percent (%) [29]: 100%
2 | Cc1ccccc1-c1nc2ncsc2cc1C [Example I-018] | 100 | 80 | 80 | – | 90 | – | 90 | 100 | 90 | 80 | 100 | 100 | – | – | – | – | – | 90 | 100 | 90 | herbicidal effect AMARE [30]: 90%; herbicidal effect POLCO [32]: 90%; herbicidal effect DIGSA [35]: 90%; herbicidal effect DIGSA [36]: 100%
3 | Fc1ccc(-c2nc3ncsc3cc2Cl)c(F)c1 [Example I-127] | 90 | 90 | 80 | 80 | 90 | 90 | 80 | 100 | 90 | – | 90 | 100 | – | – | – | – | – | 80 | 80 | 80 | herbicidal effect AVEFA (Avena fatua [37]): 90%
4 | Fc1cccc(F)c1-c1nc2ncsc2cc1Cl [Example I-087] | 90 | 90 | 90 | 80 | 90 | 90 | 80 | 100 | 90 | 90 | 100 | 100 | – | – | – | – | – | 80 | 100 | 90 | herbicidal effect LOLRI (Lolium rigidum (LOLRI) [38]): 80%; herbicidal effect POLCO [32]: 90%; herbicidal effect VIOTR (Viola tricolor (VIOTR) [39]): 80%; herbicidal effect AVEFA (Avena fatua [40]): 80%; herbicidal effect AVEFA (Avena fatua [37]): 80%
5 | Cc1ccsc1-c1nc2ncsc2cc1Cl [Example I-192] | – | 80 | 80 | – | 90 | 100 | 100 | 100 | 90 | – | 100 | 100 | 90 | 100 | 100 | 90 | 90 | – | 100 | – | herbicidal activity ABUTH [41]: 100%; herbicidal activity ALOMY [42]: 100%; herbicidal activity ECHCG [19]: 100%; herbicidal effect AVEFA (Avena fatua [40]): 80%; POAAN, herbicidal effect in percent (%) (Poa annua (POAAN) [20]): 100%; herbicidal effect SETVI (Setaria viridis (SETVI) [22]): 100%; LOLRI, herbicidal effect in percent (%) (Lolium rigidum (LOLRI) [23]): 100%; herbicidal effect VERPE (Veronica persica (VERPE) [24]): 90%; herbicidal effect KCHSC [25]: 100%; herbicidal effect MATIN [26]: 100%; ALOMY, herbicidal effect in percent (%) [27]: 100%; herbicidal effect STEME (Stellaria media (STEME) [28]): 100%; ECHCG, herbicidal effect in percent (%) [29]: 100%
